{"source": "PubChem BioAssay AID1035473", "about": "(Broad Institute, 2014)", "tested_on": "A549 viability, CellTiter-Glo ATP luminescence, 72 h", "assay": "A549 cell cytotoxicity, dose response, cytotoxicity control, dry powder samples (AID 1035473)"}
{"compound": "Cn1c(NC(=O)c2ccccc2)nc2c3cnccc3ccc21", "values": [{"measurement": "AC50", "result": 83.9, "unit": "µM"}]}
